This is an account of results in patent US9233964B2, “Sulfamide piperazine derivatives as protein tyrosine kinase inhibitors and pharmaceutical use therof” (LEO PHARMA A/S, priority 2011, dated 2016).

As usually defined, the EC50 is the concentration at which the effect is half-maximal.

Common to all, as to assay type: biochemical
One assay deals with T1, JAK1 (Homo sapiens, UniProt P23458).
T1 construct: JAK1 (aa 850-1154) and TYK2 (aa 871-1187) are expressed with an N-terminally fused GST-tag; GST (N); purchased Carna Biosciences, Inc; host or cells: baculovirus expression system
The assay is described as follows: JAK kinase assay (HTRF, phosphorylation of synthetic peptide), JAK1. The conditions noted are these: catalytic domain, ATP at Km (7 μM); read-out: JAK1 kinase inhibitory activity (EC50). The gist of the method: (§1)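 Catalytic-domain human JAK1 (GST-tagged, aa 850-1154) or His-tagged JAK2, baculovirus-expressed, phosphorylated 1 µM biotinylated TK peptide at Km ATP (JAK1 7 µM, 10 mM MgCl2, 50 nM SEB; JAK2 4 µM, 5 mM MgCl2) in pH 7.0 Hepes, 20-30 min RT. EDTA stop; overnight streptavidin-XL665/cryptate HTRF read.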
(TR-FRET usually uses a lanthanide donor and a delayed reading to cut background.)

The next assay concerns the target T2, JAK2 (Homo sapiens, UniProt O60674).
T2 construct: All four purified enzymes contain only the catalytic domain; His (N); purchased Carna Biosciences, Inc; host or cells: baculovirus expression system
The assay is described as follows: JAK kinase assay (HTRF, phosphorylation of synthetic peptide), JAK2. Conditions: catalytic domain, ATP at Km (4 μM); read-out: JAK2 kinase inhibitory activity (EC50). The procedure, abridged:
as §1

For a further assay, the target named is T3, JAK3 (Homo sapiens, UniProt P52333).
T3 construct: All four purified enzymes contain only the catalytic domain; His (N); purchased Carna Biosciences, Inc; host or cells: baculovirus expression system
The assay is described as follows: JAK kinase assay (HTRF, phosphorylation of synthetic peptide), JAK3. Conditions: catalytic domain, ATP at Km (2 μM); read-out: JAK3 kinase inhibitory activity (EC50).

Another assay has as its target T4, TYK2 (Homo sapiens, UniProt P29597).
T4 construct: JAK1 (aa 850-1154) and TYK2 (aa 871-1187) are expressed with an N-terminally fused GST-tag; GST (N); purchased Carna Biosciences, Inc; host or cells: baculovirus expression system
T4 sequence (P29597 871-1187): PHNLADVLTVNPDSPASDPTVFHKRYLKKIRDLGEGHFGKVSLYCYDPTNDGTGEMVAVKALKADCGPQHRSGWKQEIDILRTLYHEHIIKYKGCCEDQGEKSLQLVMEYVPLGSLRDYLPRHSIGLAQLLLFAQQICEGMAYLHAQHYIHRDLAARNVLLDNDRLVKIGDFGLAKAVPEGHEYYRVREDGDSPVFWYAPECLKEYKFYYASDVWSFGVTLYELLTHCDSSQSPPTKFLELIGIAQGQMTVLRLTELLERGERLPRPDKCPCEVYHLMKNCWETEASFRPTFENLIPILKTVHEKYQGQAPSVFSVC
The assay is described as follows: JAK kinase assay (HTRF, phosphorylation of synthetic peptide), TYK2. Conditions: catalytic domain, ATP at Km (13 μM); read-out: TYK2 kinase inhibitory activity (EC50). The procedure, abridged: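 1 µM biotinylated TK peptide at Km ATP in pH 7.0 Hepes, 20-30 min RT. EDTA stop; overnight streptavidin-XL665/cryptate HTRF read.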

T1 sequence (P23458 850-1154): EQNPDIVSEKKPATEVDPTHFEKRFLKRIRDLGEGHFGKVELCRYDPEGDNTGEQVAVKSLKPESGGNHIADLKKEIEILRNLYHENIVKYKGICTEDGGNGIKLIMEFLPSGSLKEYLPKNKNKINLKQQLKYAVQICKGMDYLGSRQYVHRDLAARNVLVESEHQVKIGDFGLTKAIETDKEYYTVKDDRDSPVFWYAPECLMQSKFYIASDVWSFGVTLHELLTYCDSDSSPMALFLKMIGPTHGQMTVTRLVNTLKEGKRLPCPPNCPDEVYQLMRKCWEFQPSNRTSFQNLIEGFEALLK
T3 sequence (P52333 822-1111 limits assumed): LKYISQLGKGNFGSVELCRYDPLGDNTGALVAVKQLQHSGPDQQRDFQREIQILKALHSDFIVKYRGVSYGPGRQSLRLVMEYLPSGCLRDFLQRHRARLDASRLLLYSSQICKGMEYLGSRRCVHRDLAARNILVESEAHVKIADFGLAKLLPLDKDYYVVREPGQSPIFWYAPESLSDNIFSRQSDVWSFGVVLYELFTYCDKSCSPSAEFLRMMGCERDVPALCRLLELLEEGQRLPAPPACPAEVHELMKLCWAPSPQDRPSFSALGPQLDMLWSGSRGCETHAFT
T2 sequence (O60674 849-1124 limits assumed): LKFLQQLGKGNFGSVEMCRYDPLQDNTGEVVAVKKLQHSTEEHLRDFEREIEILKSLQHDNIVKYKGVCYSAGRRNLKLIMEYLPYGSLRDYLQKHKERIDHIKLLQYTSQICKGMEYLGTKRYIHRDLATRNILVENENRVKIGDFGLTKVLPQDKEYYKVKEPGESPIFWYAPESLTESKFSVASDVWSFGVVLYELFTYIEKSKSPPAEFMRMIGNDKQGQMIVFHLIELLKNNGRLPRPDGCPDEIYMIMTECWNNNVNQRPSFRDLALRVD

Consider `CN(CC1CCNCC1)S(=O)(=O)N1CCN(c2ncnc3[nH]ccc23)CC12CC2` [Int 26], for which the EC50 was < 100 nM on JAK1, < 100 nM at JAK2, 100 to 500 nM at JAK3 and > 500 nM on TYK2.

Take `CN(CC1CCCNC1)S(=O)(=O)N1CCN(c2ncnc3[nH]ccc23)CC12CC2` (centres unmarked) [Int 27]: the EC50 on JAK1 is 100 to 500 nM; on JAK2, 100 to 500 nM; on JAK3, > 500 nM; at TYK2 it was > 500 nM.

Consider `CN(CC1CC(F)(F)CN1)S(=O)(=O)N1CCN(c2ncnc3[nH]ccc23)CC12CC2` (centres unmarked) [Int 28], for which the EC50 at JAK1, at JAK2, on JAK3 and at TYK2 was < 100 nM in each case.

As for `O=S(=O)(NC1CCC1)N1CCN(c2ncnc3[nH]ccc23)CC12CC2` [Int 30], the EC50 was < 100 nM at JAK1, < 100 nM at JAK2, 100 to 500 nM at JAK3 and > 500 nM on TYK2.

Take `O=S1(=O)CCC(CNS(=O)(=O)N2CCN(c3ncnc4[nH]ccc34)CC23CC3)C1` (centres unmarked) [Int 37]: the EC50 on JAK1 was < 100 nM; at JAK2, < 100 nM; on JAK3, < 100 nM; on TYK2, > 500 nM.

For the compound `O=S1(=O)CCC(CNS(=O)(=O)N2CCN(c3ncnc4[nH]ccc34)CC23CC3)CC1` [Int 38], the EC50 is < 100 nM at JAK1, < 100 nM on JAK2, < 100 nM at JAK3 and > 500 nM at TYK2.

For the compound `N#CCCNS(=O)(=O)N1CCN(c2ncnc3[nH]ccc23)CC12CC2` [Int 40], the half-maximal effective concentration (EC50) was < 100 nM on JAK1, < 100 nM at JAK2, < 100 nM at JAK3 and > 500 nM on TYK2.

Consider `O=S(=O)(NC1COC1)N1CCN(c2ncnc3[nH]ccc23)CC12CC2` [Int 41], for which the EC50 at JAK1 was < 100 nM; on JAK2, < 100 nM; at JAK3, < 100 nM; on TYK2, 100 to 500 nM.

Take `O=S(=O)(NOCc1ccccc1)N1CCN(c2ncnc3[nH]ccc23)CC12CC2` [Int 46]: the 50% effective concentration (EC50) on JAK1 is < 100 nM; on JAK2, < 100 nM; at JAK3 it was 100 to 500 nM; at TYK2, 100 to 500 nM.

In the case of `COc1ccc(/C=N\S(=O)(=O)N2CCN(c3ncnc4[nH]ccc34)CC23CC3)cc1` [Int 49], the EC50 was < 100 nM at JAK1, < 100 nM at JAK2, < 100 nM on JAK3 and 100 to 500 nM on TYK2.

In the case of `CN(C1CNC1)S(=O)(=O)N1CCN(c2ncnc3[nH]ccc23)CC12CC2` [Int 50], the EC50 was < 100 nM at JAK1, < 100 nM at JAK2, 100 to 500 nM on JAK3 and > 500 nM at TYK2.

For the compound `CN(C[C@H]1CCCN1)S(=O)(=O)N1CCN(c2ncnc3[nH]ccc23)CC12CC2` [Int 51], the EC50 on JAK1 is 100 to 500 nM; on JAK2, 100 to 500 nM; on JAK3, > 500 nM; on TYK2, > 500 nM.

As for `CN(C[C@@H]1CCCN1)S(=O)(=O)N1CCN(c2ncnc3[nH]ccc23)CC12CC2` [Int 52], the EC50 at JAK1 is < 100 nM; on JAK2 it was < 100 nM; on JAK3, 100 to 500 nM; at TYK2, > 500 nM.

In the case of `CC(C)(C)OC(=O)NS(=O)(=O)N1CCN(c2ncnc3[nH]ccc23)CC12CC2` [Int 53], the EC50 is < 100 nM at JAK1, < 100 nM at JAK2, < 100 nM on JAK3 and > 500 nM at TYK2.
